Values of other authors, collected in patent publication US20100203024A1 (priority 2006, published 2010).

Tested on: non-small-cell lung cancer
Conditions: patients with refractory disease

C#Cc1cccc(Nc2ncnc3cc(OCCOC)c(OCCOC)cc23)c1 [erlotinib]
partial responses, percent of patients: 9%
